Results as given in patent US20240209028A1, “CNP COMPOUNDS” (priority 2022, published 2024).
In brackets after ≈: the same amount, converted by molar mass. Like-named read-outs stand apart in the source and are kept apart here. Starred links: 1 amine or outer side, 2 acyl side, 3 side chain; linkers in the order of their positions; H or OH if unused. Positions of bridges follow the written chain, without caps; N, C: chain ends. Residues, ends and D or L forms follow the SMILES beside them. *: point of attachment. C18 diacid = O=C(O)CCCCCCCCCCCCCCCCC(=O)*; γGlu = O=C(O)[C@H](CCC(=O)[*:2])N[*:1]; AEEA = NCCOCCOCC(=O)O

Assay: Solubility of CNP compounds at pH 4.0 and pH 6.5
Assay type: physicochemical
Experimental: In order to assess the suitability of CNP compounds for a soluble liquid formulation, the solubility of CNP compounds in pharmaceutically relevant buffers were measured. Solubility at two different pH-levels (pH 4.0 and pH 6.5) was examined as pH is expected to affect solubility.
Preparation of pH 4.0 samples: The pH 4.0 samples of the CNP compounds were prepared by mixing freeze dried peptide with a pH 4.0 5 mM sodium acetate, 250 mM glycerol buffer at room temperature to a nominal concentration of at least 4000-5000 nmol/mL. The pH of the samples was measured and adjusted to pH 4.0 and the samples were allowed to equilibrate at room temperature until next day if not fully dissolved.
Preparation of pH 6.5 samples: The pH 6.5 samples of the CNP compounds were prepared by dissolving the freeze dried peptide in water. While stirring, a part of the peptide solution was transferred to a buffer consisting of 41 mM sodium phosphate and 118 mg/mL glycerol, pH 7.5-8.0, followed by addition of diluted sodium hydroxide followed by another part of the peptide solution and further addition of diluted sodium hydroxide. This procedure was repeated until all of the peptide solution had been added where a nominal concentration of at least 4000-5000 nmol/mL had been reached and the buffer composition was 8 mM sodium phosphate, 23 mg/mL glycerol. The pH of the samples were measured and adjusted to pH 6.5 and the samples were allowed to equilibrate at room temperature until next day if not fully dissolved.
Procedure: Samples at pH 4.0 were prepared as described above and the compound concentration in the supernatant was determined using CAD (Method F, CAD02).
Samples at pH 6.5 were prepared as described above and peptide concentration in the supernatant was determined by CAD (Method F, CAD02).

[1] = 5 mM sodium acetate, 250 mM glycerol, pH 4.0, room temperature, read-out: Solubility at pH 4.0
[2] = 8 mM sodium phosphate, 23 mg/mL glycerol, pH 6.5, room temperature, read-out: Solubility at pH 6.5

Structure (SMILES) | solubility [1] | solubility [2] | further results
CC[C@H](C)[C@@H]1NC(=O)[C@H](CCCNC(=N)N)NC(=O)[C@H](CC(=O)O)NC(=O)[C@H](CC(C)C)NC(=O)[C@@H]2CCCN2C(=O)[C@H](CC(C)C)NC(=O)CNC(=O)[C@H](Cc2ccccc2)NC(=O)[C@@H](NC(=O)CNC(=O)[C@H](CO)NC(=O)[C@H](CO)NC(=O)[C@@H](NC(=O)CNC(=O)[C@H](CCCCN)NC(=O)[C@H](CCCCN)NC(=O)[C@H](CCC(N)=O)NC(=O)[C@H](C)NC(=O)CNC(=O)[C@H](Cc2c[nH]cn2)NC(=O)[C@H](Cc2ccc(O)cc2)NC(=O)[C@H](CCCCN)NC(=O)[C@H](CCCNC(=N)N)NC(=O)[C@H](C)NC(=O)COCCOCCNC(=O)COCCOCCNC(=O)CC[C@H](NC(=O)CC[C@H](NC(=O)CC[C@H](NC(=O)CCCCCCCCCCCCCCCCC(=O)O)C(=O)O)C(=O)O)C(=O)O)C(C)C)CSSC[C@@H](C(=O)O)NC(=O)CNC(=O)[C@H](CC(C)C)NC(=O)CNC(=O)[C@H](CO)NC(=O)[C@H](CC(C)C)NC(=O)[C@H](CO)NC(=O)CNC1=O [compound 1422] ({C18 diacid-γGlu-γGlu-γGlu-AEEA-AEEA}-ARKYHGAQKKGVSSGCFGLPLDRIGSLSGLGC-OH; disulfide 16-32) | 8.29 mM (≈ 35.1 mg/mL) | – | –
CC[C@H](C)[C@@H]1NC(=O)[C@H](CCCNC(=N)N)NC(=O)[C@H](CCC(=O)O)NC(=O)[C@H](CC(C)C)NC(=O)[C@@H]2CCCN2C(=O)[C@H](CC(C)C)NC(=O)CNC(=O)[C@H](Cc2ccccc2)NC(=O)[C@@H](NC(=O)CNC(=O)[C@H](CCC(N)=O)NC(=O)[C@H](CO)NC(=O)[C@H](CC(C)C)NC(=O)CNC(=O)[C@H](CCCCN)NC(=O)[C@H](CCCCN)NC(=O)[C@H](CCC(N)=O)NC(=O)[C@H](C)NC(=O)CNC(=O)[C@H](CCCCN)NC(=O)[C@H](Cc2ccc(O)cc2)NC(=O)[C@H](CCCCN)NC(=O)[C@H](CCCNC(=N)N)NC(=O)[C@H](C)NC(=O)COCCOCCNC(=O)COCCOCCNC(=O)COCCOCCNC(=O)COCCOCCNC(=O)CC[C@H](NC(=O)CC[C@H](NC(=O)CC[C@H](NC(=O)CC[C@H](NC(=O)CC[C@H](NC(=O)CCCCCCCCCCCCCCCCC(=O)O)C(=O)O)C(=O)O)C(=O)O)C(=O)O)C(=O)O)CSSC[C@@H](C(=O)O)NC(=O)CNC(=O)[C@H](CC(C)C)NC(=O)CNC(=O)[C@H](CO)NC(=O)[C@H](CC(C)C)NC(=O)[C@H](CO)NC(=O)CNC1=O [compound 1477] ({C18 diacid-γGlu-γGlu-γGlu-γGlu-γGlu-AEEA-AEEA-AEEA-AEEA}-ARKYKGAQKKGLSQGCFGLPLERIGSLSGLGC-OH; disulfide 16-32) | – | – | solubility (pH 6.5): 5.35 mM (≈ 25.9 mg/mL)
CC[C@H](C)[C@@H]1NC(=O)[C@H](CCCNC(=N)N)NC(=O)[C@H](CC(=O)O)NC(=O)[C@H](CC(C)C)NC(=O)[C@@H]2CCCN2C(=O)[C@H](CC(C)C)NC(=O)CNC(=O)[C@H](Cc2ccccc2)NC(=O)[C@@H](NC(=O)CNC(=O)[C@H](CCCCN)NC(=O)[C@H](CO)NC(=O)[C@H](CC(C)C)NC(=O)CNC(=O)[C@H](CCCCN)NC(=O)[C@H](CCCCN)NC(=O)[C@H](CCC(N)=O)NC(=O)[C@H](C)NC(=O)CNC(=O)[C@H](CCCCN)NC(=O)[C@H](Cc2ccc(O)cc2)NC(=O)[C@H](CCCCN)NC(=O)[C@H](CCCNC(=N)N)NC(=O)[C@H](C)NC(=O)[C@H](CCC(N)=O)NC(=O)[C@@H]2CCCN2C(=O)[C@H](Cc2c[nH]cn2)NC(=O)[C@H](CCC(=O)O)NC(=O)[C@H](CCC(N)=O)NC(=O)COCCOCCNC(=O)COCCOCCNC(=O)CC[C@H](NC(=O)CC[C@H](NC(=O)CC[C@H](NC(=O)CC[C@H](NC(=O)CC[C@H](NC(=O)CCCCCCCCCCCCCCCCC(=O)O)C(=O)O)C(=O)O)C(=O)O)C(=O)O)C(=O)O)CSSC[C@@H](C(=O)O)NC(=O)CNC(=O)[C@H](CC(C)C)NC(=O)CNC(=O)[C@H](CO)NC(=O)[C@H](CC(C)C)NC(=O)[C@H](CO)NC(=O)CNC1=O [compound 1474] ({C18 diacid-γGlu-γGlu-γGlu-γGlu-γGlu-AEEA-AEEA}-QEHPQARKYKGAQKKGLSKGCFGLPLDRIGSLSGLGC-OH; disulfide 21-37; C-terminus assumed) | 6.38 mM (≈ 32.9 mg/mL) | 0.969 mM (≈ 5 mg/mL) | –
CC[C@H](C)[C@@H]1NC(=O)[C@H](CCCNC(=N)N)NC(=O)[C@H](CCC(=O)O)NC(=O)[C@H](CC(C)C)NC(=O)[C@@H]2CCCN2C(=O)[C@H](CC(C)C)NC(=O)CNC(=O)[C@H](Cc2ccccc2)NC(=O)[C@@H](NC(=O)CNC(=O)[C@H](CCC(N)=O)NC(=O)[C@H](CO)NC(=O)CNC(=O)CNC(=O)[C@H](CCCCN)NC(=O)[C@H](CCCCN)NC(=O)[C@H](CCC(N)=O)NC(=O)[C@H](C)NC(=O)CNC(=O)[C@H](CCCCN)NC(=O)[C@H](Cc2ccc(O)cc2)NC(=O)COCCOCCNC(=O)COCCOCCNC(=O)COCCOCCNC(=O)COCCOCCNC(=O)CC[C@H](NC(=O)CC[C@H](NC(=O)CCCCCCCCCCCCCCCCC(=O)O)C(=O)O)C(=O)O)CSSC[C@@H](C(=O)O)NC(=O)CNC(=O)[C@H](CC(C)C)NC(=O)CNC(=O)[C@H](CO)NC(=O)[C@H](CC(C)C)NC(=O)[C@H](CO)NC(=O)CNC1=O [compound 1489] ({C18 diacid-γGlu-γGlu-AEEA-AEEA-AEEA-AEEA}-YKGAQKKGGSQGCFGLPLERIGSLSGLGC-OH; disulfide 13-29) | – | – | solubility (pH 4): 5.93 mM (≈ 24 mg/mL)
CC[C@H](C)[C@@H]1NC(=O)[C@H](CCCNC(=N)N)NC(=O)[C@H](CC(=O)O)NC(=O)[C@H](CC(C)C)NC(=O)[C@@H]2CCCN2C(=O)[C@H](CC(C)C)NC(=O)CNC(=O)[C@H](Cc2ccccc2)NC(=O)[C@@H](NC(=O)CNC(=O)[C@H](CCC(N)=O)NC(=O)[C@H](CO)NC(=O)[C@H](CC(C)C)NC(=O)CNC(=O)[C@H](CCCCN)NC(=O)[C@H](CCCCN)NC(=O)[C@H](CCC(N)=O)NC(=O)[C@H](C)NC(=O)CNC(=O)[C@H](CCCCN)NC(=O)[C@H](Cc2ccc(O)cc2)NC(=O)COCCOCCNC(=O)COCCOCCNC(=O)COCCOCCNC(=O)COCCOCCNC(=O)CC[C@H](NC(=O)CC[C@H](NC(=O)CC[C@H](NC(=O)CCCCCCCCCCCCCCCCC(=O)O)C(=O)O)C(=O)O)C(=O)O)CSSC[C@@H](C(=O)O)NC(=O)CNC(=O)[C@H](CC(C)C)NC(=O)CNC(=O)[C@H](CO)NC(=O)[C@H](CC(C)C)NC(=O)[C@H](CO)NC(=O)CNC1=O [compound 9480] ({C18 diacid-γGlu-γGlu-γGlu-AEEA-AEEA-AEEA-AEEA}-YKGAQKKGLSQGCFGLPLDRIGSLSGLGC-OH; disulfide 13-29) | 0.023 mM (≈ 0.097 mg/mL) | 6.17 mM (≈ 26 mg/mL) | –
CC[C@H](C)[C@@H]1NC(=O)[C@H](CCCNC(=N)N)NC(=O)[C@H](CC(=O)O)NC(=O)[C@H](CC(C)C)NC(=O)[C@@H]2CCCN2C(=O)[C@H](CC(C)C)NC(=O)CNC(=O)[C@H](Cc2ccccc2)NC(=O)[C@@H](NC(=O)CNC(=O)[C@H](CCC(N)=O)NC(=O)[C@H](CO)NC(=O)[C@H](CC(C)C)NC(=O)CNC(=O)[C@H](CCCCN)NC(=O)[C@H](CCCCN)NC(=O)[C@H](CCC(N)=O)NC(=O)[C@H](C)NC(=O)CNC(=O)[C@H](CCCCN)NC(=O)[C@H](Cc2ccc(O)cc2)NC(=O)[C@H](CCCCN)NC(=O)[C@H](CCCNC(=N)N)NC(=O)[C@H](C)NC(=O)[C@H](CCC(N)=O)NC(=O)[C@@H]2CCCN2C(=O)[C@H](Cc2c[nH]cn2)NC(=O)[C@H](CCC(=O)O)NC(=O)[C@H](CCC(N)=O)NC(=O)COCCOCCNC(=O)COCCOCCNC(=O)COCCOCCNC(=O)COCCOCCNC(=O)CC[C@H](NC(=O)CC[C@H](NC(=O)CC[C@H](NC(=O)CC[C@H](NC(=O)CC[C@H](NC(=O)CCCCCCCCCCCCCCCCC(=O)O)C(=O)O)C(=O)O)C(=O)O)C(=O)O)C(=O)O)CSSC[C@@H](C(=O)O)NC(=O)CNC(=O)[C@H](CC(C)C)NC(=O)CNC(=O)[C@H](CO)NC(=O)[C@H](CC(C)C)NC(=O)[C@H](CO)NC(=O)CNC1=O [compound 1406] ({C18 diacid-γGlu-γGlu-γGlu-γGlu-γGlu-AEEA-AEEA-AEEA-AEEA}-QEHPQARKYKGAQKKGLSQGCFGLPLDRIGSLSGLGC-OH; disulfide 21-37) | – | 5.67 mM (≈ 30.9 mg/mL) | –
CC[C@H](C)[C@@H]1NC(=O)[C@H](CCCNC(=N)N)NC(=O)[C@H](CC(=O)O)NC(=O)[C@H](CC(C)C)NC(=O)[C@@H]2CCCN2C(=O)[C@H](CC(C)C)NC(=O)CNC(=O)[C@H](Cc2ccccc2)NC(=O)[C@@H](NC(=O)CNC(=O)[C@H](CO)NC(=O)[C@H](CO)NC(=O)[C@H](CC(C)C)NC(=O)CNC(=O)[C@@H](NC(=O)[C@H](Cc2c[nH]cn2)NC(=O)[C@H](CCC(N)=O)NC(=O)[C@H](C)NC(=O)CNC(=O)[C@H](Cc2c[nH]cn2)NC(=O)[C@H](Cc2ccc(O)cc2)NC(=O)COCCOCCNC(=O)COCCOCCNC(=O)CC[C@H](NC(=O)CCCCCCCCCCCCCCCCC(=O)O)C(=O)O)[C@@H](C)O)CSSC[C@@H](C(=O)O)NC(=O)CNC(=O)[C@H](CC(C)C)NC(=O)CNC(=O)[C@H](CO)NC(=O)[C@H](CC(C)C)NC(=O)[C@H](CO)NC(=O)CNC1=O [compound 1304] ({C18 diacid-γGlu-AEEA-AEEA}-YHGAQHTGLSSGCFGLPLDRIGSLSGLGC-OH; disulfide 13-29) | – | 6.66 mM (≈ 24.1 mg/mL) | –
